The results in this text go back to ChEMBL document CHEMBL1201862, “PubChem BioAssay data set” (2004).

A short description of assay [1]: Concentration-dependent survival of SW480 colon cancer line, luminescence detection with CellTiter-Glo, half-maximal inhibitory concentration (AID 1117338). The assay is classed as functional.
Assay [2] can be described thus: RKO cell viability reduction, dose response, CellTiter-Glo luminescence (AID 1117322). The assay is classed as functional. On the technique in general: Cellular ATP, detected with luciferase, serves as a proxy for viable cell number.
Assay [3] can be described thus: cytotoxicity toward HCT116 cells – cell-based, CellTiter-Glo luminescence, IC50, dose response (AID 1117332). The assay is classed as functional. As to conditions: HCT-116.
Assay [4] can be described thus: cytotoxicity toward Colo320 cells – cell-based, CellTiter-Glo luminescence, IC50, dose response (AID 1117334). As to conditions: COLO 320. The assay is classed as functional.
A short description of assay [5]: cytotoxicity toward HT-29 cells – cell-based, CellTiter-Glo luminescence, IC50, dose response (AID 1117330). The assay is classed as functional.
The nature of assay [6]: CellTiter-Glo luminescent dose response of DLD-1 viability loss (AID 1117352). The assay is classed as functional.
For another assay, the target named is T1, Leucine aminopeptidase (Plasmodium falciparum 3D7, UniProt Q8IL11).
T1 sequence (Q8IL11 whole entry): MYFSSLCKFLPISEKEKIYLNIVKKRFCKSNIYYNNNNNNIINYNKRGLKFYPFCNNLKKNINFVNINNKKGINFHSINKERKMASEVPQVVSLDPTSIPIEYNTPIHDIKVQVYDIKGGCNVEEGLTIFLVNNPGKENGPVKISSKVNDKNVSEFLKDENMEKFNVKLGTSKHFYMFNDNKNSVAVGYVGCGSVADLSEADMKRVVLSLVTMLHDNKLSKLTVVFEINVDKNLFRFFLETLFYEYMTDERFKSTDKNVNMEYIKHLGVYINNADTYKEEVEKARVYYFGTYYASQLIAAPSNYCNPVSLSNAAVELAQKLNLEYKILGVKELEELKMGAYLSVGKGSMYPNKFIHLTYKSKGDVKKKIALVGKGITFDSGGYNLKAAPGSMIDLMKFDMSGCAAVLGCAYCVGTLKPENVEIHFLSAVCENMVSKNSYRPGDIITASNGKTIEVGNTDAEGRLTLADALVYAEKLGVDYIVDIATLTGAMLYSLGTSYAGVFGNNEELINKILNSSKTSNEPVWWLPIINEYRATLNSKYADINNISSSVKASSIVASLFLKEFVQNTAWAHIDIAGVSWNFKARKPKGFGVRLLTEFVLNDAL
The experiment in a line: P. falciparum M17LAP inhibitors, primary screen, biochemical, fluorogenic H-Leu-NHMec substrate, 1536-well (AID 1619). The class given is functional.

A further assay has as its target T2, Aspartyl aminopeptidase (Plasmodium falciparum 3D7, UniProt Q8I2J3).
T2 sequence (Q8I2J3 whole entry): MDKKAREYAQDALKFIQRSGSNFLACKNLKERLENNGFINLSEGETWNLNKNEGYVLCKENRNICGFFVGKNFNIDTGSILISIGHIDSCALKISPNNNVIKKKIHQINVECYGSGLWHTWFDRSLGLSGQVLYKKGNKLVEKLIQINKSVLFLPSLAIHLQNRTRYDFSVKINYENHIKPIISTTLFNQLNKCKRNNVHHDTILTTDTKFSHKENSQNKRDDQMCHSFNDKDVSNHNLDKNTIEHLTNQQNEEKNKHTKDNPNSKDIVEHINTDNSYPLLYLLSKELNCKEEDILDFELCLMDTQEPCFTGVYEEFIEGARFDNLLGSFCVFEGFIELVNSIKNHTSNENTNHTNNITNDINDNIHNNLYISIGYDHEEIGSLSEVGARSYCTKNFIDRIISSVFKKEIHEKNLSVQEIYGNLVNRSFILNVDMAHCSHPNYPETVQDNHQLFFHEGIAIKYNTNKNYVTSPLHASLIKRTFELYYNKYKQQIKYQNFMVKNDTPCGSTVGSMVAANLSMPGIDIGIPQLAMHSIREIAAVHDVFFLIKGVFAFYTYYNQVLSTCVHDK
Description: Counterscreen for inhibitors of M1 and M17 aminopeptidases: QFRET-based biochemical high throughput dose response assay for inhibitors of the Plasmodium falciparum M18 Aspartyl Aminopeptidase (PFM18AAP). [Related PubChem assays: 1619 (Screening assay (M17LAP inhibitors).), 1445 (Screening assay (M1AAP inhibitors).)].

The target of another assay is Procathepsin L (Homo sapiens, UniProt P07711). Description: cathepsin L inhibitors, dose response, counter-screen for M1/M17 aminopeptidase inhibitor project, biochemical, QFRET, 1536-well (AID 2214).
Sequence of Procathepsin L (P07711 whole entry): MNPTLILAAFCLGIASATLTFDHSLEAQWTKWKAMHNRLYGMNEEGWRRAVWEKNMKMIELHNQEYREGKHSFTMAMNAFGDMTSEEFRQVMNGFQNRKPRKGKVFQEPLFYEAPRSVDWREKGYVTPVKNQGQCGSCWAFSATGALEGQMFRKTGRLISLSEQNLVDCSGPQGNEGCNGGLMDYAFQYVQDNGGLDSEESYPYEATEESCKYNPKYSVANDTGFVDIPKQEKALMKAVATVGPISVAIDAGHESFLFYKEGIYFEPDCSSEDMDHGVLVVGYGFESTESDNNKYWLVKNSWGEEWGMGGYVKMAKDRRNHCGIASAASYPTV
Assay [7] is described as follows: Luminescence Cell-Based Dose Retest to Confirm Inhibitors of Cancer Stem Cells. [Related pubchem assays (depositor defined):AID2717, AID2721]. As to conditions: Homo sapiens. The assay is classed as functional.
Assay [8] can be described thus: THP-1 cell cytotoxicity, dose response, cytotoxicity control for Vif-APOBEC3G degradation inhibitor project, THP-1 cells (AID 1117359). The settings on record: Human immunodeficiency virus 1, THP-1. The assay is classed as functional.
Assay [9] addresses Sphingosine 1-phosphate receptor 2 (Homo sapiens, UniProt O95136). The experiment in a line: Dose Response Cell Based Assay for Antagonists of the S1P2 Receptor. [Related pubchem assays: 856, 736 ]. The assay is classed as functional.
The subject of assay [10] is BJ. Description: cytotoxicity toward BJ-TERT fibroblasts, dose response, cell-based, RAS-independent, luminescence (AID 1933). The assay is classed as functional. The settings on record: Homo sapiens.
Assay [11] deals with BJ. The experiment in a line: cells. The assay is classed as functional, cell-based. As to conditions: Homo sapiens.
The nature of assay [12]: microbe, parasite or virus in culture. As to conditions: Mycobacterium tuberculosis. The class given is functional.
A short description of assay [13]: growth suppression of PTEN-null colon cells, dose response, cell-based, HCT116 PTEN knockout (AID 1047).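 Further: HCT116 colon tumor cells with PTEN knocked out; cells exposed to compound for 60 hours before readout; potency for loss of cell viability measured by luminescence.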 The class given is functional.
For assay [14], the target named is T3, Calpain-2 catalytic subunit (Sus scrofa, UniProt P43367).
T3 sequence (P43367 whole entry): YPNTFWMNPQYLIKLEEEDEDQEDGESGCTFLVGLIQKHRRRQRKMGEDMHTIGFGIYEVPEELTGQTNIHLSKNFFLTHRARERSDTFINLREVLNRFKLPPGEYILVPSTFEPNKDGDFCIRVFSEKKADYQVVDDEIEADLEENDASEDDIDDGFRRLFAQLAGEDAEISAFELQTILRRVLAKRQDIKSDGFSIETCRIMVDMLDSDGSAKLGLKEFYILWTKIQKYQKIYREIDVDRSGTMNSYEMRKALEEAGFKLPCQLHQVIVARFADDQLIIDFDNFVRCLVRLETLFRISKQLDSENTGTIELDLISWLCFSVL
The experiment in a line: pig calpain II inhibitor potency, dose response, biochemical, fluorogenic peptide substrate (AID 1420). The assay is classed as functional.

Assay [15] is described as follows: growth suppression of beta-catenin-knockout colon cells, dose response, cell-based, HCT116, human colon tumor (AID 1045).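 Further: HCT116 colon tumor cells with beta catenin knocked out; cells exposed to compound for 60 hours.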 The assay is classed as functional.
Assay [16] relates to BJ. The experiment in a line: cytotoxicity toward BJ-TERT-LT-ST fibroblasts, dose response, cell-based, RAS-independent, luminescence (AID 1935).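 Further: BJ fibroblasts immortalized with TERT plus LT and ST oncogenes.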 As to conditions: Homo sapiens. The class given is functional.
The nature of assay [17]: cytotoxicity toward DRD oncogenic fibroblasts, dose response, cell-based, non-viral oncogenic, luminescence (AID 1934). The assay is classed as functional. The settings on record: Homo sapiens.
Assay [18] concerns the target Voltage-dependent T-type calcium channel subunit alpha-1H (Homo sapiens, UniProt O95180). The assay is classed as functional.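 Further: channel activity triggered by adding a high calcium stimulation buffer.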
The next assay has as its system Jurkat. Description: antigen receptor-induced NF-kB inhibitors, dose response, Jurkat, luciferase reporter, luminescence, B- and T-cell (AID 489004).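 Further: NF-kB luciferase reporter Jurkat cells stimulated with PMA plus ionomycin.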 The class given is functional, cell-based. The settings on record: Homo sapiens. For orientation: A reporter such as luciferase makes a cellular process visible.
A short description of assay [19]: cytotoxicity in HEK-293T NF-kB-Luc cells, dose response, cytotoxicity control for B/T-cell NF-kB inhibitor project, cell-based, uHTS hits (AID 489019).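 Further: IC50 reflects cytotoxicity as loss of cell viability.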 The assay is classed as functional.
A further assay concerns INS1. Description: beta cell apoptosis inhibitors, cytokine rescue, dose response, luminescence, retest (AID 449756).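 Further: cell death triggered by IL-1 beta plus TNF-alpha plus IFN-gamma mixture; protective hits raise ATP signal compared with cytokine alone wells.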 The class given is functional, cell-based. The settings on record: Rattus norvegicus.
Assay [20] in a line: Shn3 3'UTR reporter inhibitors, dose response, cell-based, Clone20 osteoblasts, firefly luciferase, cherry-picked (AID 624132).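 Further: firefly luciferase luminescence from reporter carrying the Shn3 3'UTR in osteoblasts.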 The class given is functional.
Assay [21] in a line: HepG2 cell cytotoxicity, dose response, cytotoxicity control for Shn3 inhibitor project, CellTiter-Glo, cherry-picked (AID 624134). The class given is functional, cell-based.
Assay [22] in a line: control 3'UTR Renilla luciferase suppression, dose response, counter-screen for Shn3 inhibitor project, cell-based, Clone20-Shn3RL, cherry-picked (AID 624133). The assay is classed as functional. (In general: The purpose of a counterscreen is to sort out artefacts and off-target activity.)
The target of another assay is T4, fMet-Leu-Phe receptor (Homo sapiens, UniProt P21462).
T4 sequence (P21462 whole entry): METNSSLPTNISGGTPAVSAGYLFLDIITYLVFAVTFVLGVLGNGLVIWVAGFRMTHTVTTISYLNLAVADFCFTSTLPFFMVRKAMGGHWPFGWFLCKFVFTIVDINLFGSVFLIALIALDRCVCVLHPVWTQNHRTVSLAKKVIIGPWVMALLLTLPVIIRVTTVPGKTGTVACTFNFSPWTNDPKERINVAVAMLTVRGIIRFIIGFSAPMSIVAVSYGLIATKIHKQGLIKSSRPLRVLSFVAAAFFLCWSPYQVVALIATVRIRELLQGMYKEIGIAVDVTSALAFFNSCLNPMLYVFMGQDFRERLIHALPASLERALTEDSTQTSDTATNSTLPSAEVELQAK
Description: FPR ligands, dose response (AID 519). The class given is functional.

In a further assay the test system is HT-1080. Description: cytotoxicity in HT1080 fibrosarcoma cells, cell-based, fluorescence readout (AID 620). The assay is classed as functional. The settings on record: Homo sapiens.

SMILES strings stand for the structures. Where a name gives a salt, the structure may show the parent alone. Calls of active or inactive are those of the source. Where only a bound is given, the exact number is not on record here.

Sequence of Sphingosine 1-phosphate receptor 2 (O95136 whole entry): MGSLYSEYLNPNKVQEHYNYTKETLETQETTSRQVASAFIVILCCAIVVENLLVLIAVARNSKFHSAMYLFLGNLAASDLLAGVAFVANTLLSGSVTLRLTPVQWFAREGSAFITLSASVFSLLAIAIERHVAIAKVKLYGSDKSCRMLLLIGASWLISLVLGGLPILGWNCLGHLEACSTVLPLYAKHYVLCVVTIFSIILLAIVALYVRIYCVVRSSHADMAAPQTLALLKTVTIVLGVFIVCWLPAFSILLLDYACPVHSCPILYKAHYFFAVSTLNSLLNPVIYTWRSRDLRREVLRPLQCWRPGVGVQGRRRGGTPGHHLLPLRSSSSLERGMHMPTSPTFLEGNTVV
Sequence of Voltage-dependent T-type calcium channel subunit alpha-1H (O95180 whole entry): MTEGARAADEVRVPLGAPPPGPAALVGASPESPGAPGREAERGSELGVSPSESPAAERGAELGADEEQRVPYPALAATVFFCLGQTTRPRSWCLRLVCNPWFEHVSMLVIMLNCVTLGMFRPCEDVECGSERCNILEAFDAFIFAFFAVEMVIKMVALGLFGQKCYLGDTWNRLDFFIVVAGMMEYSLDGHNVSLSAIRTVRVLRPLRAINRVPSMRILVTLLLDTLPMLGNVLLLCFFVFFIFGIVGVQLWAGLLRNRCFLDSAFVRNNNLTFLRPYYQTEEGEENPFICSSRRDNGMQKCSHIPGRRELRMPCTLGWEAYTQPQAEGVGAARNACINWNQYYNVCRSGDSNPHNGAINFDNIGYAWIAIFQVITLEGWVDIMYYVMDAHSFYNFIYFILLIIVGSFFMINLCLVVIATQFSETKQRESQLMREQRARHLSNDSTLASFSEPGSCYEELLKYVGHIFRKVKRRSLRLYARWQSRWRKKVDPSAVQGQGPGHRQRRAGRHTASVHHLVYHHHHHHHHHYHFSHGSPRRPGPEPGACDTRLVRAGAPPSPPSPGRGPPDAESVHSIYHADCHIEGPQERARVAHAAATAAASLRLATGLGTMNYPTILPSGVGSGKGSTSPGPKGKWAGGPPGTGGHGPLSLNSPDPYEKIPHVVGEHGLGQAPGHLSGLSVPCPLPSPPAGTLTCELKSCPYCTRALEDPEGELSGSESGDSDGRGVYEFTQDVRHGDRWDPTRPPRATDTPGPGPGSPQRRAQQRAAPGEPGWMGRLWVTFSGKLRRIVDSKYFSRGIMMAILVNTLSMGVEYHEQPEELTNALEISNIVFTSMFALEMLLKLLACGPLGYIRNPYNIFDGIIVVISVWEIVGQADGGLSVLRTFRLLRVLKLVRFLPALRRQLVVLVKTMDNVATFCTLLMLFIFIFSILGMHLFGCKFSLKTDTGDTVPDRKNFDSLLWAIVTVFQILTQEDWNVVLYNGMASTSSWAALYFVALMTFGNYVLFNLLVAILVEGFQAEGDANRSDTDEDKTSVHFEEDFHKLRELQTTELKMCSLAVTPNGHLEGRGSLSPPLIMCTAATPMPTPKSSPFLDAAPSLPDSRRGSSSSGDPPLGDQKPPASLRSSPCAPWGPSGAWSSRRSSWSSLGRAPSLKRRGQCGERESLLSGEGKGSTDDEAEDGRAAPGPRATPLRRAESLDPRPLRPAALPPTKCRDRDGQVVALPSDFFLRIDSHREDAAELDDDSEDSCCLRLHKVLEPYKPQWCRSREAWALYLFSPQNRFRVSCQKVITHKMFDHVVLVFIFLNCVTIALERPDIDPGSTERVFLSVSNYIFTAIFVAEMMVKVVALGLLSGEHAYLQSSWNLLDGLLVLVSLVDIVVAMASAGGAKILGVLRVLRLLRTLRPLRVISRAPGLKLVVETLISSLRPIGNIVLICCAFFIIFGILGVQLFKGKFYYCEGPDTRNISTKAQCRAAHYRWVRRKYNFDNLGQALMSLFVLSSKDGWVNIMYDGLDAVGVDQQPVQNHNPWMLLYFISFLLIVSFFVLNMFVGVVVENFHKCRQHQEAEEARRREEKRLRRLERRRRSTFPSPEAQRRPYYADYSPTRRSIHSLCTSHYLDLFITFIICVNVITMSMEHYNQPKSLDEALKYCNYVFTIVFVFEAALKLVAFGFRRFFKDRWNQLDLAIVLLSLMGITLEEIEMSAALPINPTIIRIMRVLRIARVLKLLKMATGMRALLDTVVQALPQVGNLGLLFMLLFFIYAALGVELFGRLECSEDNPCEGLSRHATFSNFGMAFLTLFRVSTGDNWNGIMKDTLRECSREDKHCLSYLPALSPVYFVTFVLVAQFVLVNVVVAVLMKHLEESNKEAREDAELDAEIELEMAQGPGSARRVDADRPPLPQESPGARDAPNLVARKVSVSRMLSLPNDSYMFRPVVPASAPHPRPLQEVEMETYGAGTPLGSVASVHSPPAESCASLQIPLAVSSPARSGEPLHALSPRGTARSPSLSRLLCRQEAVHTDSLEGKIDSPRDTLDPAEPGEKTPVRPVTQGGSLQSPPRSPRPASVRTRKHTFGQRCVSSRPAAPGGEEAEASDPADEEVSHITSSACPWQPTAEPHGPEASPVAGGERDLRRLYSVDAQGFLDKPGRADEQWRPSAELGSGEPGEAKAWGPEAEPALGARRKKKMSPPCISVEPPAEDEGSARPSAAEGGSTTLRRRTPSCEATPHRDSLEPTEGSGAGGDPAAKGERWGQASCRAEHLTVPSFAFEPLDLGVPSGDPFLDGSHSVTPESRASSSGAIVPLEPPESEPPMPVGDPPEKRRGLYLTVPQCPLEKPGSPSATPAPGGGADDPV

As usually defined, the IC50 is the concentration that gives 50% inhibition. With `CC(C)(C)NCC(O)c1cc(O)cc(O)c1` (stereo not given) [TERBUTALINE SULFATE], the IC50 in assay [1], in [2], in assay [3], in assay [4], in [5] and in [6] was > 20 µM (inactive) in each case.
As to `CC1=C(C)CC(C(=O)Nc2cccc([N+](=O)[O-])c2)C(C(=O)O)C1` (stereo not given), the figures for the IC50 at Leucine aminopeptidase, against Aspartyl aminopeptidase and against Procathepsin L were 6.42 µM (active), > 73.5 µM (not active) and > 59.6 µM (not active), respectively.
As a reminder, the AC50 is the concentration at which the activity in the assay is half-maximal. For `Cc1ccc(/C=N/c2ccccc2C(N)=O)s1`, the AC50 in assay [7] was 2.44 µM (active). Further, in [8], the CC50 was 2.54 µM (active).
As usually defined, the EC50 is the concentration needed to bring the measured effect to its halfway point. For `N#CC(c1cccc(Cl)c1)c1ccc2c(C(F)(F)F)cc(C(F)(F)F)nc2n1` (stereo not given), the IC50 in assay [9] is 0.922 µM (active); in [14], 6.77 µM (not active); in the assay with Jurkat, 34.5 µM (inactive); in assay [19], > 80 µM (inactive). Also, the EC50 in the assay on BJ [10] is 2.77 µM (active); in the assay with BJ [11], 3.68 µM (inconclusive); in assay [13] it was 0.235 µM (active); in [15] it was 0.267 µM (active); with BJ [16], 6.56 µM (active); in assay [17], 3.04 µM (active). The EC50 in assay [18] was 3.85 µM (active). In assay [12], the CC50 was < 0.16 µM (active). Also, the AC50 in the assay on INS1 was 0.881 µM (active); in assay [20] it was 0.689 µM (active); in [21], 0.805 µM (active); in assay [22], 0.54 µM (active).
As a reminder, the Ki is the equilibrium dissociation constant of an inhibitor or competing ligand from its target. In the case of `COc1cccc(-c2nc(CS(=O)(=O)CC(=O)NCCC(C)C)c(C)o2)c1`, at fMet-Leu-Phe receptor, the Ki is > 66.7 µM (inactive).
Take `O=C(NC1=NC2CCCCC2N1)c1ccccc1` (stereo not given): in the assay on HT-1080, the EC50 was > 50 µM (not active).
Consider `Cc1ccc(F)c(NC(=O)C2CCCCC2C(=O)O)c1` (stereo not given), for which, on fMet-Leu-Phe receptor, the Ki is > 66.7 µM (inactive).
